{
  "source": "patent US12570684B2",
  "about": "(UNIVERSITY OF TENNESSEE RESEARCH FOUNDATION, priority 2020, dated 2026)",
  "key": {"DLD-1": {"system": "DLD-1", "experiment": "MTT cytotoxicity assay", "assay_type": "cell-based", "conditions": "72 h", "experimental": "(§1) Cell lines. The human primary PDAC cell lines PANC-1 (ATCC CRL 1469); Capan-2 (ATCC HTB-80) and metastatic PDAC cell lines Capan-1 (ATCC HTB-79), AsPC-1 (ATCC CRL-1682), L1210 (ATCC CCL-219), KB (ATCC CCL-17), HeLa, SiHa (ATCC HTB-35), HCT-116 (ATCC CCL-247), DLD-1 (ATCC CCL221), hTERT-HPNE (ATCC CRL-4023), Vero (ATCC CCL-81) were purchased from the ATCC. The cell lines were cultured and maintained in the media as recommended by the supplier. The cell lines were regularly tested for mycoplasma contamination and authenticated. In addition to ATCC cell lines, Dr. Glazer's lab generated patient-derived PDAC cell line, PD002. PD002 Cells were maintained and cultured in DMEM medium supplemented with 20% FBS and 100 IU/mL penicillin and incubated at 37° C. with 5% CO2.\n(§2) MTT cytotoxicity assay. To study the effect of treatment with DPAGT1 inhibitors on the growth and proliferation of cells, a fixed number of cells (5×10^4 cells/well, 196 μL) were plated in a 96 well plate. Into each well 5 μL of drug concentration was added. After 72 h of incubation with drugs at 37° C., 5% CO2, 10 μL of MTT solution (5 mg/mL in PBS) was added and incubated another 3 h at 37° C., 5% CO2. The medium was removed, and DMSO (200 μL/well) was added. Viability was assessed on the basis of cellular conversion of MTT into a purple formazan product. The absorbance of the colored formazan product was measured at 570 nm by BioTek Synergy HT Spectrophotometer."}, "HCT-116 [1]": {"system": "HCT-116", "experiment": "MTT cytotoxicity assay", "assay_type": "cell-based", "conditions": "72 h", "experimental": "as §1, §2"}, "HPNE": {"system": "HPNE", "experiment": "MTT cytotoxicity assay", "assay_type": "cell-based", "experimental": "as §1, §2"}, "KB": {"system": "KB", "experiment": "MTT cytotoxicity assay", "assay_type": "cell-based", "conditions": "72 h", "experimental": "as §1, §2"}, "L1210": {"system": "L1210", "experiment": "MTT cytotoxicity assay", "assay_type": "cell-based", "experimental": "as §1, §2"}, "PD002 [2]": {"system": "PD002", "experiment": "MTT cytotoxicity assay", "assay_type": "cell-based", "experimental": "as §1, §2"}, "SiHa [3]": {"system": "SiHa", "experiment": "MTT cytotoxicity assay", "assay_type": "cell-based", "conditions": "72 h", "experimental": "as §1, §2"}, "Vero": {"system": "Vero", "experiment": "MTT cytotoxicity assay", "assay_type": "cell-based", "experimental": "as §1, §2"}, "AsPC-1": {"system": "AsPC-1", "experiment": "MTT cytotoxicity assay", "assay_type": "cell-based, human", "conditions": "72 h", "experimental": "as §1, §2"}, "Capan-2": {"system": "Capan-2", "experiment": "MTT cytotoxicity assay", "assay_type": "cell-based, human", "conditions": "72 h", "experimental": "as §1, §2"}, "PANC-1": {"system": "PANC-1", "experiment": "MTT cytotoxicity assay", "assay_type": "cell-based, human", "conditions": "72 h", "experimental": "as §1, §2"}, "HCT-116 [4]": {"system": "HCT-116", "experiment": "Scratch (wound healing) assay", "assay_type": "cell-based", "conditions": "scratch assays", "experimental": "(§3) Scratch Assay. A confluent monolayer was formed in 24-well plates. The monolayer was scratched by a sterile 200 μL pipette tip and washed with PBS to remove cell debris. Complete medium with CPPB (5) (0, 0.05, 0.1, 0.2 μM) were added and scratched areas were photographed with microscope. The scratched cells were incubated at 37° C., 5% CO2. After 24 h, medium was removed and cells were stained with a 1:1 mixture of crystal violet and PBS for 5 min., washed with PBS twice, and photographed with microscope. Wound areas were measured and recovered areas were calculated."}, "PD002 [5]": {"system": "PD002", "experiment": "Scratch (wound healing) assay", "assay_type": "cell-based", "conditions": "0.2 μM, 24 h; untreated PD002 63%", "experimental": "as §3"}, "SiHa [6]": {"system": "SiHa", "experiment": "Scratch (wound healing) assay", "assay_type": "cell-based", "conditions": "0.2 μM", "experimental": "as §3"}, "[7]": {"system": "pancreatic cancer cell lines (Capan-2, PANC-1, and AsPC-1)", "experiment": "Scratch (wound healing) assay", "assay_type": "cell-based, human", "conditions": "0.05, 0.1, and 0.2 μM, 24 h", "experimental": "as §3"}, "PD002 [8]": {"system": "PD002", "experiment": "Cell migration assay using Transwell (Boyden) chamber", "assay_type": "cell-based", "conditions": "0.1 μM, 18 h; compared to tunicamycin and gemcitabine at 0.1 μM", "experimental": "Cell migration assays using Transwell chamber. Cell migration assay was performed using Boyden chamber (thermo fisher). PD002 cells (˜10^4 cells/mL) were seeded in 96-wells plate (Corning, HTS Transwell-96 Well Permeable Supports, pore size: 8 μm) in FBS free media and the lower chambers were filled with 10% FBS medium. CPPB, tunicamycin, or gemcitabine (0.1 μM) was added to the upper chamber. The cells were incubated for 18 h at 37° C. under 5% CO2. The cells were fixed using 4% paraformaldehyde for 0.5 h and stained with 0.05% crystal violet (300 μL/well), after 0.5 h, images were captured via 10× magnification microscopy."}, "E-cadherin": {"system": "E-cadherin", "experiment": "Immunofluorescent staining of E-cadherin", "assay_type": "cell-based"}, "DPAGT1": {"system": "DPAGT1", "experiment": "Immunofluorescent staining of DPAGT1 expression", "assay_type": "cell-based"}, "DPAGT1 gene": {"system": "DPAGT1 gene", "experiment": "RT-qPCR analyses of DPAGT1 expression level", "assay_type": "cell-based", "conditions": "PD002"}, "PD002 [9]": {"system": "PD002", "experiment": "Checkerboard synergy (FIC index) with paclitaxel", "assay_type": "cell-based", "experimental": "The synergistic or antagonistic activities of CPPB were assessed in vitro via checkerboard technique."}},
  "note": "“Also recorded” adds a separate entry of the source.",
  "data": [
    {"substance": "(2S,3S,4S)-2-((1R)-2-Amino-1-((2S,5R)-5-(2,4-dioxo-3,4-dihydropyrimidin-1(2H)-yl)-4-hydroxy-3-methoxytetrahydrofuran-2-yl)-2-oxoethoxy)-3,4-dihydroxy-N-(4-(4-(4-(trifluoromethoxy)-phenyl)piperidin-1-yl)benzyl)-3,4-dihydro-2H-pyran-6-carboxamide [CPPB]", "values": [
      {"measurement": "IC50", "setting": "DLD-1", "result": 25, "unit": "µM"},
      {"measurement": "IC50", "setting": "HCT-116 [1]", "result": 15, "unit": "µM"},
      {"measurement": "IC50", "setting": "HPNE; MTT, 72 h", "result": "> 50", "unit": "µM"},
      {"measurement": "antiproliferative activity against HPNE", "setting": "HPNE; at 50 μM, normal pancreatic ductal cell", "result": "did not show antiproliferative activity"},
      {"measurement": "IC50", "setting": "KB", "result": 35, "unit": "µM"},
      {"measurement": "IC50", "setting": "L1210; MTT, 72 h", "result": "> 50", "unit": "µM"},
      {"measurement": "antiproliferative activity against L1210", "setting": "L1210; at 50 μM", "result": "did not show antiproliferative activity"},
      {"measurement": "cell viability of PD002 (MTT reduction assay)", "setting": "PD002 [2]; 50 μM", "result": "significantly decreased"},
      {"measurement": "IC50", "setting": "PD002 [2]; MTT, 72 h", "result": 35, "unit": "µM"},
      {"measurement": "IC50", "setting": "SiHa [3]", "result": 15, "unit": "µM"},
      {"measurement": "IC50", "setting": "Vero; MTT, 72 h", "result": "> 50", "unit": "µM"},
      {"measurement": "antiproliferative activity against Vero", "setting": "Vero; at 50 μM, normal kidney cell", "result": "did not show antiproliferative activity"},
      {"measurement": "IC50", "setting": "AsPC-1", "result": 25, "unit": "µM"},
      {"measurement": "IC50", "setting": "Capan-2", "result": 30, "unit": "µM"},
      {"measurement": "IC50", "setting": "PANC-1", "result": 35, "unit": "µM"},
      {"measurement": "cell migration of HCT-116", "setting": "HCT-116 [4]", "result": "not inhibited; also recorded: did not inhibit migration"},
      {"measurement": "wound-healing rate", "setting": "PD002 [5]", "result": "approximately 20%"},
      {"measurement": "migration of SiHa", "setting": "SiHa [6]", "result": "strongly inhibited migration"},
      {"measurement": "migration of pancreatic cancer cell lines vs PBS control", "setting": "[7]", "result": "migrated far less"},
      {"measurement": "cell migration of PD002 via transwell chamber", "setting": "PD002 [8]", "result": "inhibited on a higher level"},
      {"measurement": "E-cadherin expression level in PD002", "setting": "E-cadherin; 0.05-0.2 μM", "result": "not noticeably changed"},
      {"measurement": "E-cadherin expression level in Panc-1", "setting": "E-cadherin; 0.05-0.2 μM", "result": "slightly increased"},
      {"measurement": "E-cadherin expression levels of PD002, PANC-1, and HCT-116", "setting": "E-cadherin; 0.05-2.0 μM", "result": "not changed significantly"},
      {"measurement": "DPAGT1 protein expression", "setting": "DPAGT1", "result": "decreased"},
      {"measurement": "DPAGT1 expression in pancreatic cancer cell lines", "setting": "DPAGT1; 0.2 μM", "result": "apparently inhibited"},
      {"measurement": "order of decrease of DPAGT1 expression", "setting": "DPAGT1; 0.2 μM", "result": "PANC-1>PD002>>HCT-116"},
      {"measurement": "DPAGT1 expression levels of HCT-116", "setting": "DPAGT1; 20 μM", "result": "remained high"},
      {"measurement": "DPAGT1 expression of the pancreatic cancer cell lines at high concentration", "setting": "DPAGT1; 2-20 μM", "result": "could not completely be inhibited"},
      {"measurement": "DPAGT1 gene expression", "setting": "DPAGT1 gene", "result": "without significantly decreasing"},
      {"measurement": "synergistic effect with paclitaxel", "setting": "PD002 [9]; PD002", "result": "strong synergistic effect"},
      {"measurement": "IC50", "setting": "PD002 [9]; alone, read-out: IC50 of the single agent against PD002", "result": 35, "unit": "µM"},
      {"measurement": "ΣFIC", "setting": "PD002 [9]; entry 1, CPPB 0.10 μM + paclitaxel 0.63 μM", "result": 0.50},
      {"measurement": "IC50", "setting": "PD002 [9]; entry 1, with paclitaxel 0.63 μM, read-out: IC50 CA (CPPB in combination)", "result": 0.1, "unit": "µM"},
      {"measurement": "ΣFIC", "setting": "PD002 [9]; entry 2, CPPB 0.10 μM + paclitaxel […]", "result": 0.13},
      {"measurement": "IC50", "setting": "PD002 [9]; entry 2, with paclitaxel […], read-out: IC50 CA (CPPB in combination)", "result": 0.1, "unit": "µM"},
      {"measurement": "ΣFIC", "setting": "PD002 [9]; entry 3, CPPB 0.20 μM + paclitaxel 0.0049 μM", "result": 0.0096},
      {"measurement": "IC50", "setting": "PD002 [9]; entry 3, with paclitaxel 0.0049 μM, read-out: IC50 CA (CPPB in combination)", "result": 0.2, "unit": "µM"},
      {"measurement": "ΣFIC", "setting": "PD002 [9]; entry 4, CPPB 0.20 μM + paclitaxel 0.020 μM", "result": 0.021},
      {"measurement": "IC50", "setting": "PD002 [9]; entry 4, with paclitaxel 0.020 μM, read-out: IC50 CA (CPPB in combination)", "result": 0.2, "unit": "µM"},
      {"measurement": "ΣFIC", "setting": "PD002 [9]; entry 5, CPPB 0.20 μM + paclitaxel 0.031 μM", "result": 0.26},
      {"measurement": "IC50", "setting": "PD002 [9]; entry 5, with paclitaxel 0.031 μM, read-out: IC50 CA (CPPB in combination)", "result": 0.2, "unit": "µM"},
      {"measurement": "ΣFIC", "setting": "PD002 [9]; entry 6, CPPB 2.0 μM + paclitaxel 0.020 μM", "result": 0.021},
      {"measurement": "IC50", "setting": "PD002 [9]; entry 6, with paclitaxel 0.020 μM, read-out: IC50 CA (CPPB in combination)", "result": 2, "unit": "µM"},
      {"measurement": "ΣFIC", "setting": "PD002 [9]; entry 7, CPPB 2.0 μM + paclitaxel 0.039 μM", "result": 0.037},
      {"measurement": "IC50", "setting": "PD002 [9]; entry 7, with paclitaxel 0.039 μM, read-out: IC50 CA (CPPB in combination)", "result": 2, "unit": "µM"},
      {"measurement": "ΣFIC", "setting": "PD002 [9]; entry 8, CPPB 2.0 μM + paclitaxel 0.31 μM", "result": 0.26},
      {"measurement": "IC50", "setting": "PD002 [9]; entry 8, with paclitaxel 0.31 μM, read-out: IC50 CA (CPPB in combination)", "result": 2, "unit": "µM"}
    ]}
  ]
}
